A value given as a limit tells only on which side of the number the result lay.

The assay has as its target T1, HEK-Blue-hTLR8 cells (Homo sapiens, UniProt Q9NR97).
T1 construct: expressed in transfected cells; host or cells: HEK-Blue-hTLR8 cells (HEK293-derived reporter line)
T1 sequence (Q9NR97 27-1041): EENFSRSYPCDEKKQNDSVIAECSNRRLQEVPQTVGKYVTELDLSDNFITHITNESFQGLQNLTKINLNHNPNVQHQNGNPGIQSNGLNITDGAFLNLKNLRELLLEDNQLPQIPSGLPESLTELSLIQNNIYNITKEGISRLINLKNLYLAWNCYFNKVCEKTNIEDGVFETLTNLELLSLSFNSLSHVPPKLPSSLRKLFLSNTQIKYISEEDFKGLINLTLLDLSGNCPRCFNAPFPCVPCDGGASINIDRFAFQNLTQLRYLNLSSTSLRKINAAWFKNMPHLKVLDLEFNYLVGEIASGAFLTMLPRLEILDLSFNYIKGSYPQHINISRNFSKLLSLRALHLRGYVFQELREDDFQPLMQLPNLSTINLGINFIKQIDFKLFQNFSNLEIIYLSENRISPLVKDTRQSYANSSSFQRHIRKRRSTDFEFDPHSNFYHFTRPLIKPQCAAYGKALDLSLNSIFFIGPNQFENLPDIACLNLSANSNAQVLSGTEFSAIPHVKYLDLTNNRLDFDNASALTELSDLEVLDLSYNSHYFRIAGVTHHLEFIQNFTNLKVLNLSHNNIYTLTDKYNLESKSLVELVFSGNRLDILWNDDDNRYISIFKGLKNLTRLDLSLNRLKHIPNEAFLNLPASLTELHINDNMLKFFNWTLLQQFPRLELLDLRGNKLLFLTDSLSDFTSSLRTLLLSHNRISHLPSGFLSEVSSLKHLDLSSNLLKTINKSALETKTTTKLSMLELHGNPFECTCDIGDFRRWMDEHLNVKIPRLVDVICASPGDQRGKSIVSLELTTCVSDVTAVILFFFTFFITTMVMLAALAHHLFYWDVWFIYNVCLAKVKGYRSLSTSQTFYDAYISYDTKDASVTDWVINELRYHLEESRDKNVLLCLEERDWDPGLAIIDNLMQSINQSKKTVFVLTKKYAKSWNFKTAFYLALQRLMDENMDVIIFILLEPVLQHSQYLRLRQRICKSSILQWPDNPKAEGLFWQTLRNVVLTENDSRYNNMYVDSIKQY
The assay can be described thus: HEK-Blue-hTLR8 cell inhibition assay. It is filed as cell-based. The conditions noted are these: R848 3 µM, 16 h, OD 620 nm, read-out: TLR8 IC50. Here is the method:
HEK-Blue-hTLR7/8/9 cell inhibition assay
1. HEK-Blue-hTLR7/8 cells (1 × 10^4 cells/well) and HEK-Blue-hTLR9 cells (1.5 × 10^4 cells/well) were seeded in a 384-well cell culture plate, with a volume of 30 µL per well. The plate was incubated at 37°C in a 5% CO2 incubator for 4 h. 2. The compound was prepared with DMSO and diluted in DMEM medium to 10 concentrations (1:3 dilution), with final concentrations of 10000, 3333.3, 1111.1, 370.4, 123.5, 41.2, 13.7, 4.6, 1.5, and 0.5 nM; R848 was prepared with DMSO and diluted in DMEM medium, with final concentrations of 0.8 µM (HEK-Blue-hTLR7) and 3 µM (HEK-Blue-hTLR8); ODN2006 was prepared with endotoxin-free water and diluted in DMEM medium, with a final concentration of 1 µM. 3. Cells treated with DMSO were used as the blank control group, while cells treated solely with Resiquimod (R848) were used as the positive control group for HEK-Blue-hTLR7/8, and cells treated solely with ODN2006 were used as the positive control group for HEK-Blue-hTLR9. Cells treated with the test compound together with R848 or ODN2006 were used as the test group. Two parallel wells were set for each group and were placed at 37°C in a 5% CO2 incubator for incubation. 4. After being incubated for 4 h, the 384-well plate of HEK-Blue-hTLR7/8 was taken out from the incubator, and R848 alone or both R848 and the diluted compound were separately added into each well. The plate was placed at 37°C in a 5% CO2 incubator for incubation for 16 h; the 384-well plate of HEK-Blue-hTLR9 was taken out from the incubator, and ODN2006 alone or both ODN2006 and the diluted compound were added separately to each well. The plate was incubated at 37°C in a 5% CO2 incubator for 16 h. 5. After being incubated for 16 h, the 384-well plate was removed from the incubator and centrifuged at 1000 rpm for 1 minute. The optical density value of each well at 620 nm was measured using a multifunctional microplate reader. 6. The cell inhibition rate was calculated as (1-(OD620 test group-OD620 blank group)/(OD620 positive group-OD620 blank group))×100%, and the half maximal inhibitory concentration (IC50) was calculated through curve fitting. Table 1: Activity of the compounds of the present disclosure in HEK-Blue-hTLR7/8/9 cellular assays

For `CN1CCN(c2nnc([C@]34CN(c5ccc(C#N)c6ncccc56)C[C@@]3(C(F)(F)F)C4)o2)CC1` [Compound 1, 5-((1S,5R)-1-(5-(4-methylpiperazin-1-yl)-1,3,4-oxadiazol-2-yl)-5-(trifluoromethyl)-3-azabicyclo[3.1.0]hexan-3-yl)quinoline-8-carbonitrile], the half-inhibitory concentration (IC50) (as a rule, the concentration that gives 50% inhibition) is less than 0.1 µM.

In the case of `Cc1cc(N2CC3(c4nnc(C5CCN(C)CC5)o4)C[C@]3(C(F)(F)F)C2)c2cnn(C)c2n1` (stereo partly drawn) [Compound 2, 2-((5R)-3-(1,6-dimethyl-1H-pyrazolo[3,4-b]pyridin-4-yl)-5-(trifluoromethyl)-3-azabicyclo[3.1.0]hexan-1-yl)-5-(1-methylpiperidin-4-yl)-1,3,4-oxadiazole], the 50% inhibitory concentration (IC50) is more than 1 µM. With `FC(F)(F)c1ccc(N2C[C@]3(c4nnc(C5(F)CCNCC5)o4)C[C@]3(C(F)(F)F)C2)c2cccnc12` [Compound 3, 2-(4-fluoropiperidin-4-yl)-5-((1S,5R)-5-(trifluoromethyl)-3-(8-(trifluoromethyl)quinolin-5-yl)-3-azabicyclo[3.1.0]hexan-1-yl)-1,3,4-oxadiazole], the 50% inhibitory concentration (IC50) was less than 0.1 µM. For the molecule `CN1CC(c2nnc([C@]34CN(c5ccc(C(F)(F)F)c6ncccc56)C[C@@]3(C(F)(F)F)C4)o2)C1` [Compound 4, 2-(1-methylazetidin-3-yl)-5-((1S,5R)-5-(trifluoromethyl)-3-(8-(trifluoromethyl)quinolin-5-yl)-3-azabicyclo[3.1.0]hexan-1-yl)-1,3,4-oxadiazole], the half-maximal inhibitory concentration (IC50) is less than 0.1 µM. The figure for `CN1CCC(c2nnc([C@]34CN(c5ccc(C#N)c6ncccc56)C[C@@]3(C(F)(F)F)C4)n2C)CC1` [Compound 5, 5-((1S,5R)-1-(4-methyl-5-(1-methylpiperidin-4-yl)-4H-1,2,4-triazol-3-yl)-5-(trifluoromethyl)-3-azabicyclo[3.1.0]hexan-3-yl)quinoline-8-carbonitrile] is more than 1 µM.

Take `CN1CCC(Nc2nnc([C@]34CN(c5ccc(C#N)c6ncccc56)C[C@@]3(C(F)(F)F)C4)o2)CC1` [Compound 6, 5-((1S,5R)-1-(5-((1-methylpiperidin-4-yl)amino)-1,3,4-oxadiazol-2-yl)-5-(trifluoromethyl)-3-azabicyclo[3.1.0]hexan-3-yl)quinoline-8-carbonitrile]: the 50% inhibitory concentration (IC50) was less than 0.1 µM. With `N#Cc1ccc(N2C[C@]3(c4nnc(N)o4)C[C@]3(C(F)(F)F)C2)c2cccnc12` [Compound 7, 5-((1S,5R)-1-(5-amino-1,3,4-oxadiazol-2-yl)-5-(trifluoromethyl)-3-azabicyclo[3.1.0]hexan-3-yl)quinoline-8-carbonitrile], the half-inhibitory concentration (IC50) is less than 0.1 µM. `CN1CCC(C)(c2nnc([C@]34CN(c5ccc(C#N)c6ncccc56)C[C@@]3(C(F)(F)F)C4)o2)CC1` [Compound 8, 5-((1S,5R)-1-(5-(1,4-dimethylpiperidin-4-yl)-1,3,4-oxadiazol-2-yl)-5-(trifluoromethyl)-3-azabicyclo[3.1.0]hexan-3-yl)quinoline-8-carbonitrile]: the IC50 is less than 0.1 µM.

For the molecule `CN1CCC(c2nnc([C@]34CN(c5ccc(C#N)c6ncccc56)C[C@@]3(C(F)(F)F)C4)[nH]2)CC1` [Compound 9, 5-((1S,5R)-1-(5-(1-methylpiperidin-4-yl)-4H-1,2,4-triazol-3-yl)-5-(trifluoromethyl)-3-azabicyclo[3.1.0]hexan-3-yl)quinoline-8-carbonitrile], the IC50 was less than 0.1 µM. For the molecule `CN1[C@@H]2CC[C@H]1C[C@H](c1nnc([C@]34CN(c5ccc(C#N)c6ncccc56)C[C@@]3(C(F)(F)F)C4)o1)C2` [Compound 11, 5-((1S,5R)-1-(5-((1R,3S,5S)-8-methyl-8-azabicyclo[3.2.1]octan-3-yl)-1,3,4-oxadiazol-2-yl)-5-(trifluoromethyl)-3-azabicyclo[3.1.0]hexan-3-yl)quinoline-8-carbonitrile], the IC50 is less than 0.1 µM. `N#Cc1ccc(N2C[C@]3(c4nnc(C5CCOCC5)o4)C[C@]3(C(F)(F)F)C2)c2cccnc12` [Compound 12, 5-((1S,5R)-1-(5-(tetrahydro-2H-pyran-4-yl)-1,3,4-oxadiazol-2-yl)-5-(trifluoromethyl)-3-azabicyclo[3.1.0]hexan-3-yl)quinoline-8-carbonitrile]: the 50% inhibitory concentration (IC50) was less than 0.1 µM. For `CN1CC2(CCC(c3nnc([C@]45CN(c6ccc(C#N)c7ncccc67)C[C@@]4(C(F)(F)F)C5)o3)CC2)C1` [Compound 13, 5-((1S,5R)-1-(5-(2-methyl-2-azaspiro[3.5]nonan-7-yl)-1,3,4-oxadiazol-2-yl)-5-(trifluoromethyl)-3-azabicyclo[3.1.0]hexan-3-yl)quinoline-8-carbonitrile], the concentration for half-maximal inhibition (IC50) is less than 0.1 µM. The figure for `CN1CC2CC1CC2c1nnc([C@]23CN(c4ccc(C#N)c5ncccc45)C[C@@]2(C(F)(F)F)C3)o1` (stereo partly drawn) [Compound 14, 5-((1S,5R)-1-(5-(2-methyl-2-azabicyclo[2.2.1]heptan-5-yl)-1,3,4-oxadiazol-2-yl)-5-(trifluoromethyl)-3-azabicyclo[3.1.0]hexan-3-yl)quinoline-8-carbonitrile] is less than 0.1 µM; for `CN1CCC(Oc2nnc([C@]34CN(c5ccc(C#N)c6ncccc56)C[C@@]3(C(F)(F)F)C4)o2)CC1` [Compound 15, 5-((1S,5R)-1-(5-((1-methylpiperidin-4-yl)oxy)-1,3,4-oxadiazol-2-yl)-5-(trifluoromethyl)-3-azabicyclo[3.1.0]hexan-3-yl)quinoline-8-carbonitrile] it is less than 0.1 µM. Turning to `N#Cc1ccc(N2C[C@]3(c4nnc(C5CCN(CC(N)=O)CC5)o4)C[C@]3(C(F)(F)F)C2)c2cccnc12` [Compound 17, 2-(4-(5-((1S,5R)-3-(8-cyanoquinolin-5-yl)-5-(trifluoromethyl)-3-azabicyclo[3.1.0]hexan-1-yl)-1,3,4-oxadiazol-2-yl)piperidin-1-yl)acetamide], the IC50 was less than 0.1 µM. With `N#Cc1ccc(N2C[C@]3(c4nnc(C5CC6(CNC6)C5)o4)C[C@]3(C(F)(F)F)C2)c2cccnc12` [Compound 18, 5-((1S,5R)-1-(5-(2-azaspiro[3.3]heptan-6-yl)-1,3,4-oxadiazol-2-yl)-5-(trifluoromethyl)-3-azabicyclo[3.1.0]hexan-3-yl)quinoline-8-carbonitrile], the concentration for half-maximal inhibition (IC50) is less than 0.1 µM. Consider `CN1CC2(CC(c3nnc([C@]45CN(c6ccc(C#N)c7ncccc67)C[C@@]4(C(F)(F)F)C5)o3)C2)C1` [Compound 19, 5-((1S,5R)-1-(5-(2-methyl-2-azaspiro[3.3]heptan-6-yl)-1,3,4-oxadiazol-2-yl)-5-(trifluoromethyl)-3-azabicyclo[3.1.0]hexan-3-yl)quinoline-8-carbonitrile], for which the concentration for half-maximal inhibition (IC50) was less than 0.1 µM. Take `N#Cc1ccc(N2C[C@]3(c4nnc([C@H]5CC[C@H](N)CC5)o4)C[C@]3(C(F)(F)F)C2)c2cccnc12` [Compound 20, 5-((1S,5R)-1-(5-((1R,4S)-4-aminocyclohexyl)-1,3,4-oxadiazol-2-yl)-5-(trifluoromethyl)-3-azabicyclo[3.1.0]hexan-3-yl)quinoline-8-carbonitrile]: the concentration for half-maximal inhibition (IC50) is less than 0.1 µM.
